Experimental data taken from the NIST ThermoML archive (doi:10.1021/je0340755).

Assay: xn = mol fraction of the nth substance listed
Settings: 101.3 kPa, Liquid; for viscosity: Capillary tube (Ostwald / Ubbelohde) method

OCCCCO [1,4-butanediol] + O
Settings | mass density, 318.15 K [kg/m3] | mass density, 328.15 K [kg/m3] | mass density, 338.15 K [kg/m3] | speed of sound, 318.15 K [m/s] | speed of sound, 328.15 K [m/s] | speed of sound, 338.15 K [m/s] | viscosity, 328.15 K [mPa·s] | viscosity, 338.15 K [mPa·s]
x2 = 0.055 | – | 994.94 | 988.66 | – | 1554.9 | 1531.3 | 18.38 | 12.72
x2 = 0.1534 | – | 996.05 | 989.67 | – | 1564.8 | 1540.8 | 16.32 | 11.28
x2 = 0.2472 | – | 997.2 | 990.72 | – | 1575.6 | 1549.4 | 14.35 | 9.897
x2 = 0.3542 | – | 998.64 | 992.05 | – | 1590.3 | 1562.2 | 12.12 | 8.335
x2 = 0.4531 | – | 999.93 | 993.23 | – | 1605 | 1575.1 | 10.08 | 6.914
x2 = 0.498 | – | 1000.44 | 993.7 | 1640 | 1610.8 | 1580.7 | 9.167 | 6.279
x2 = 0.5578 | 1008.07 | 1001.01 | 994.23 | 1648.7 | 1618.6 | 1588.5 | 7.972 | 5.449
x2 = 0.6513 | 1008.53 | 1001.51 | 994.7 | 1661.1 | 1631.1 | 1599 | 6.178 | 4.213
x2 = 0.7496 | 1007.83 | 1000.99 | 994.27 | 1671.4 | 1641.4 | 1611.3 | 4.438 | 3.033
x2 = 0.8475 | 1004.59 | 998.24 | 991.81 | 1669 | 1642.3 | 1615.6 | 2.877 | 2
x2 = 0.9081 | 1000.44 | 994.62 | 988.57 | 1645 | 1626.3 | 1606.6 | 1.965 | 1.404
x2 = 0.9152 | 999.82 | 994.08 | 988.08 | 1640.3 | 1623.2 | 1605.1 | 1.858 | 1.335
x2 = 0.9253 | 998.88 | 993.26 | 987.35 | 1633.3 | 1618 | 1601.7 | 1.705 | 1.235
x2 = 0.9355 | 997.88 | 992.38 | 986.56 | 1624.2 | 1611.8 | 1597.4 | 1.549 | 1.133
x2 = 0.9543 | 995.86 | 990.62 | 984.97 | 1604.9 | 1597.3 | 1587.8 | 1.257 | 0.941
x2 = 0.955 | 995.78 | 990.55 | 984.91 | 1603.8 | 1596.3 | 1586.8 | 1.246 | 0.934
x2 = 0.9597 | 995.24 | 990.08 | 984.49 | 1598.2 | 1592.2 | 1584.2 | 1.172 | 0.885
x2 = 0.9699 | 994.03 | 989.02 | 983.54 | 1584.8 | 1581.9 | 1577.1 | 1.009 | 0.776
x2 = 0.9804 | 992.74 | 987.89 | 982.52 | 1568.2 | 1569.6 | 1569 | 0.837 | 0.662
x2 = 0.9901 | 991.5 | 986.81 | 981.56 | 1552.7 | 1558.3 | 1560 | 0.674 | 0.553
x2 = 0.9924 | 991.2 | 986.55 | 981.32 | 1548.3 | 1555.3 | 1558.2 | 0.635 | 0.527
x2 = 0.9955 | 990.8 | 986.2 | 981.01 | 1542.8 | 1550.2 | 1554.5 | 0.581 | 0.491
